Data published in patent US5576355A, “Diamondoid derivatives for pharmaceutical use” (priority 1993, dated 1996).
“Also recorded” adds a separate entry of the source. Read-outs that look alike come from different tables or passages of the source.

Experiments:
HIV-1 = experiment: Anti-HIV testing under the rigorous conditions of the examples (strain not stated); conditions: high virus load, words
Influenza Viruses = conditions: cited from earlier work
HIV-1/MN [1] = experiment: Anti-HIV assay (MTT, protection from cytopathic effect), pre- or post-infection, HIV-1/MN; type: cell-based; for MN Post-Infection: key: ++++: significant and reproducible inhibition of cytopathic effect; +++: significant and reproducible inhibition of cytopathic effect; +: noticeable but minimal protection; ---: no protective effect was observed; --: no protective effect was observed; -: no protection was observed but some changes in the cell culture occurred
HIV-1/MN [2] = experiment: Virus neutralization assay (MTT), HIV-1MN; type: cell-based; for MN Neutralization: key: ++++: significant and reproducible inhibition of cytopathic effect; +++: significant and reproducible inhibition of cytopathic effect; +: noticeable but minimal protection; ---: no protective effect was observed; --: no protective effect was observed; -: no protection was observed but some changes in the cell culture occurred
MT-2 cells = experiment: MTT dye reduction cytotoxicity assay, 5 days
Description: The MT-2 cell line was grown and maintained in RPMI 1640 containing 10% fetal calf serum and antibiotics.
Precisely, when the MT-2 cells were in log phase and 2×10^4 cells were distributed in each well along with separate 100 μl aliquots of diluted test compounds. The test compounds were soluble in ethyl alcohol (EtOH). Ethanol and medium were incubated in some wells with the cells as an ethanol control. A cell control was also included (wells containing only cells and medium). The plates were incubated for 5 days at 37° C. in 5% CO2 and humidified conditions. Cell viability was determined in each well by the MTT assay. The OD570 (optical density at 570 nm) of cells without test compound was taken as 0% killing and was compared to the OD570 of cells with test compound. The toxicity profile for different compounds was then scored. In the MTT dye reduction assay toxicity was indicated as yellow in the wells, with blue color indicating the compound was non-toxic.

HIV-1MN induced syncytia = experiment: Syncytia inhibition, HIV-1MN
VP6 primary HIV isolate = experiment: Anti-HIV assay (MTT), pre- or post-infection, VP6 isolate; conditions: words
[3] = tested on: AZT resistant strain (AZTR) of HIV-1; experiment: Anti-HIV assay (MTT), pre- or post-infection, AZT resistant strain; conditions: words
[4] = HIV-1/MN, virus pre-mixed with compound 1 hour

**Q.** For `O=C1C2CC3CC1CC(C2)C3=O` [adamantane-2,6-dione], which “activity under the rigorous testing conditions” value (shortened to “activity”) (HIV-1) is on record?
**A.** ineffective

**Q.** With `NC12CC3CC(CC(C3)C1)C2` [Amantadine] as the molecule, how does the “concentration at which viral entry into the cell is non-specifically inhibited” value (Influenza Viruses; altering the pH of the endocytic vesicle) read?
**A.** > 0.5 mM

**Q.** What about the “concentration of selective strain-specific inhibition of virus assembly” value (Influenza Viruses; lower concentration) of the same molecule?
**A.** about 5 μM

**Q.** Which “activity” value (HIV-1) does the source give for `C[N+](C)(C)CCC[N+](C)(C)C1C2CC3CC(C2)CC1C3` (stereo not shown) [N-(2-adamantyl)-N,N,N',N',N'-pentamethyl-propane-1,3-bis ammonium diodide] here?
**A.** ineffective

**Q.** For `CC12CC3(C)CC(O)(C1)CC(O)(C2)C3` [Compound 2, 1,3-dihydroxy-5,7-dimethyladamantane], which “MN Post-Infection” value (HIV-1/MN [1]; HIV-1/MN, post-infection) is on record?
**A.** +++

**Q.** And the “effect in both pre-infection and post-infection assays” value (HIV-1/MN [1]; HIV-1MN, words)?
**A.** effective

**Q.** And the “effect in pre-infection (pretreatment) assay” value (“effect in pre-infection” below) (HIV-1/MN [1]; MN, pre-infection, words)?
**A.** effective

**Q.** What about the “effect in post-infection assay” value (HIV-1/MN [1]; post-infection, words) of the same molecule?
**A.** effective

**Q.** And the “effect in neutralization assay” value (HIV-1/MN [2]; neutralization, words)?
**A.** effective

**Q.** What about the “Toxicity at 5 μg/ml” value (MT-2 cells) of the same molecule?
**A.** -

**Q.** And the “Toxicity at 50 μg/ml” value (MT-2 cells)?
**A.** -

**Q.** What about the “Toxicity at .5 μg/ml” value (MT-2 cells) of the same molecule?
**A.** -

**Q.** With `O=C1C2CC3CC1CC(O)(C3)C2` [5-hydroxy-2-adamantanone] as the molecule, how does the “activity” value (HIV-1) read?
**A.** ineffective

**Q.** With `O[C@@H]1[C@@H]2C[C@H]3C[C@@H](C2)C2(OCCO2)[C@@H]1C3` (relative stereo) [Compound 8, 4(e)-hydroxy-2-adamantanone ethylene glycol ketal] as the molecule, how does the “MN Post-Infection” value (HIV-1/MN [1]) read?
**A.** -

**Q.** What about the “effect in pre-infection” value (HIV-1/MN [1]) of the same molecule?
**A.** effective

**Q.** And the “effect in neutralization assay” value (HIV-1/MN [2])?
**A.** effective

**Q.** And the “Toxicity at 5 μg/ml” value (MT-2 cells)?
**A.** -

**Q.** And the “Toxicity at 50 μg/ml” value (MT-2 cells)?
**A.** -

**Q.** And the “Toxicity at .5 μg/ml” value (MT-2 cells)?
**A.** -

**Q.** Which “MN Pre-Infection” value (HIV-1/MN [1]; HIV-1/MN, cells pretreated 1 hour) does the source give for `O=C(O)CNC1C2CC3CC(C2)CC1C3` (stereo not shown) [Compound 5, N-2-adamantyl glycine] here?
**A.** -

**Q.** What about the “MN Post-Infection” value (HIV-1/MN [1]; HIV-1/MN, post-infection) of the same molecule?
**A.** +++

**Q.** What about the “effect in post-infection assay” value (HIV-1/MN [1]; post-infection, words) of the same molecule?
**A.** effective

**Q.** And the “MN Neutralization” value (HIV-1/MN [2]; [4])?
**A.** -

**Q.** And the “Toxicity at 5 μg/ml” value (MT-2 cells)?
**A.** -

**Q.** What about the “Toxicity at 50 μg/ml” value (MT-2 cells) of the same molecule?
**A.** -

**Q.** And the “Toxicity at 500 μg/ml” value (MT-2 cells)?
**A.** -

**Q.** And the “Toxicity at .5 μg/ml” value (MT-2 cells)?
**A.** -

**Q.** With `O=C1C2CC3C4CC5CC3C1C(C5)C4C2` [Compound 6, 3-diamantanone] as the molecule, how does the “MN Post-Infection” value (HIV-1/MN [1]) read?
**A.** ++++

**Q.** And the “MN Pre-Infection” value (HIV-1/MN [1])?
**A.** +++

**Q.** What about the “effect in both pre-infection and post-infection assays” value (HIV-1/MN [1]) of the same molecule?
**A.** effective; also recorded: active

**Q.** And the “effect in post-infection assay” value (HIV-1/MN [1])?
**A.** effective

**Q.** And the “effect in pre-infection” value (HIV-1/MN [1])?
**A.** effective

**Q.** And the “MN Neutralization” value (HIV-1/MN [2])?
**A.** +++

**Q.** What about the “effect in neutralization assay” value (HIV-1/MN [2]) of the same molecule?
**A.** effective; also recorded: active

**Q.** And the “inhibition of HIV-1MN induced syncytia at 10 μg/ml” value (HIV-1MN induced syncytia; 10 μg/ml, FIG. 2)?
**A.** completely inhibit

**Q.** What about the “Toxicity at 5 μg/ml” value (MT-2 cells) of the same molecule?
**A.** -

**Q.** What about the “Toxicity at 50 μg/ml” value (MT-2 cells) of the same molecule?
**A.** -

**Q.** And the “Toxicity at .5 μg/ml” value (MT-2 cells)?
**A.** -

**Q.** And the “inhibition of virus replication, VP6 clinical isolates” value (VP6 primary HIV isolate; both pre- and post-infection)?
**A.** inhibited virus replication

**Q.** And the “inhibition of clinical isolates” value (VP6 primary HIV isolate)?
**A.** shown to inhibit

**Q.** And the “inhibition of virus replication, AZT resistant strains” value ([3]; both pre- and post-infection)?
**A.** inhibited virus replication

**Q.** And the “inhibition of AZT resistant isolates” value [3]?
**A.** shown to inhibit

**Q.** Which “MN Post-Infection” value (HIV-1/MN [1]; HIV-1/MN, post-infection) does the source give for `C[N+](C)(C)CCC[N+](C)(C)C1C2CC3C4CC5CC3C1C(C5)C4C2` (stereo not shown) [Compound 3, N-3-diamantyl-N,N,N',N',N'-pentamethyl propane-1,3-bis ammonium diiodide] here?
**A.** +++

**Q.** What about the “effect in both pre-infection and post-infection assays” value (HIV-1/MN [1]; HIV-1MN, words) of the same molecule?
**A.** effective

**Q.** What about the “effect in pre-infection” value (HIV-1/MN [1]; MN, pre-infection, words) of the same molecule?
**A.** effective

**Q.** What about the “effect in post-infection assay” value (HIV-1/MN [1]; post-infection, words) of the same molecule?
**A.** effective

**Q.** What about the “MN Neutralization” value (HIV-1/MN [2]; [4]) of the same molecule?
**A.** +++

**Q.** What about the “effect in neutralization assay” value (HIV-1/MN [2]; neutralization, words) of the same molecule?
**A.** effective

**Q.** And the “Toxicity at 5 μg/ml” value (MT-2 cells)?
**A.** -

**Q.** And the “Toxicity at 50 μg/ml” value (MT-2 cells)?
**A.** -

**Q.** And the “Toxicity at .5 μg/ml” value (MT-2 cells)?
**A.** -

**Q.** Which “MN Post-Infection” value (HIV-1/MN [1]; HIV-1/MN, post-infection) does the source give for `OC12CC3(O)CC(O)(C1)CC(O)(C2)C3` [Compound 1, 1,3,5,7-tetrahydroxyadamantane] here?
**A.** +++

**Q.** What about the “effect in both pre-infection and post-infection assays” value (HIV-1/MN [1]; HIV-1MN, words) of the same molecule?
**A.** effective

**Q.** And the “effect in pre-infection” value (HIV-1/MN [1]; MN, pre-infection, words)?
**A.** effective

**Q.** What about the “effect in post-infection assay” value (HIV-1/MN [1]; post-infection, words) of the same molecule?
**A.** effective

**Q.** And the “effect in neutralization assay” value (HIV-1/MN [2]; neutralization, words)?
**A.** effective

**Q.** And the “Toxicity at 5 μg/ml” value (MT-2 cells)?
**A.** -

**Q.** What about the “Toxicity at 50 μg/ml” value (MT-2 cells) of the same molecule?
**A.** -

**Q.** And the “Toxicity at 500 μg/ml” value (MT-2 cells)?
**A.** -

**Q.** And the “Toxicity at .5 μg/ml” value (MT-2 cells)?
**A.** -

**Q.** With `O=C1C2CC3C4CC5CC3C(C2=O)C(C5)C14` [diamantane-3,5-dione] as the molecule, how does the “activity” value (HIV-1) read?
**A.** ineffective

**Q.** What does the source list for `O=C1C2CC3CC(C2)C(=O)C1C3` [Compound 7, 2,4-adamantanedione]?
**A.** MN Post-Infection (HIV-1/MN [1]; HIV-1/MN, post-infection): -; effect in pre-infection (pretreatment) assay (HIV-1/MN [1]; MN, pre-infection, words): effective; also recorded: inhibited viral cytopathic effect; pretreatment compared with post-infection treatment (HIV-1/MN [1]; words): pretreatment is more effective than post-infection treatment; effect in neutralization assay (HIV-1/MN [2]; neutralization, words): effective; inhibition of syncytia formation (HIV-1MN induced syncytia; concentration not given): substantially eliminate syncytia formation; Toxicity at 5 μg/ml (MT-2 cells): -; Toxicity at 50 μg/ml (MT-2 cells): -; Toxicity at 500 μg/ml (MT-2 cells): -; Toxicity at .5 μg/ml (MT-2 cells): -; inhibition of CPE of HIV, VP6 isolate (VP6 primary HIV isolate; pre-infection): inhibited CPE of HIV; inhibition of clinical isolates (VP6 primary HIV isolate): shown to inhibit; inhibition of CPE of HIV, AZT resistant isolate ([3]; pre-infection): inhibited CPE of HIV; inhibition of AZT resistant isolates [3]: shown to inhibit

**Q.** With `C[N+](C)(C)CC[N+](C)(C)C1C2CC3CC(C2)CC1C3` (stereo not shown) [Compound 4, N-2-adamantyl-N,N,N',N',N'-pentamethyl ethane-1,2-bis ammonium diiodide] as the molecule, how does the “Toxicity at 5 μg/ml” value (MT-2 cells) read?
**A.** -

**Q.** What about the “Toxicity at 50 μg/ml” value (MT-2 cells) of the same molecule?
**A.** -

**Q.** What about the “Toxicity at 500 μg/ml” value (MT-2 cells) of the same molecule?
**A.** -

**Q.** What about the “Toxicity at .5 μg/ml” value (MT-2 cells) of the same molecule?
**A.** -

**Q.** With `O=C1C2CC3CC(C2)CC1C3` [2-adamantanone, reference compound] as the molecule, how does the “activity” value (HIV-1) read?
**A.** ineffective
